Results from patent US12060360B2, “Lysyl oxidase inhibitors” (The Institute of Cancer Research: Royal Cancer Hospital, priority 2017, dated 2024).
pIC50: −log10 of the molar value.

Legend:
LOX = target: T1, LOX (Mus musculus, UniProt P28301); assay: LOX activity in cysts assay (LOX-roGFP2 biosensor, MDCK cysts); format: cell-based; settings: MDCK cysts; for pIC50: roGFP2 ratio at basal surface, read-out: LOX biosensor IC50 (cyst)
T1 construct: Full length LOX cDNA was then PCR cloned into pEGFP-N1 (Clonetech), or biosensor vector proGFP2-N1; expressed in transfected cells; host or cells: MDCK cells grown as cysts on Matrigel, G418-selected
T1 sequence (P28301 163-411): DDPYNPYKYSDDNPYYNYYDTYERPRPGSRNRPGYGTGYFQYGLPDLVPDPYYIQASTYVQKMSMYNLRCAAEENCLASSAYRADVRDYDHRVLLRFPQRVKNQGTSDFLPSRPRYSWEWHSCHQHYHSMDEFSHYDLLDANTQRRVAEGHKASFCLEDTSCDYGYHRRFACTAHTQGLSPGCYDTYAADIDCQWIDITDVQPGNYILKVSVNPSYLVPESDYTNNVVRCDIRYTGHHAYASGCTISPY
Outline: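 Live MDCK cysts grown 10 days on Matrigel and expressing mouse LOX fused to the roGFP2 redox biosensor, with inhibitors added 30 min before confocal imaging. Oxidised/reduced ratio (405/488 nm excitation, 500–530 nm emission) at the basal cyst surface taken as LOX activity. DMSO defines 0% and 1 mM BAPN 100% inhibition.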

[1] = tested on: SW620 human colorectal carcinoma cells (mutant RAS); assay: SW620 xenografts, primary tumour volume T/C; format: in vivo; settings: 200 mg/kg po qd; ratio of average tumour volume treated/vehicle control; p<0.05
Method: (§1) All procedures involving animals were approved by the Animal Welfare and Ethical Review Body of the Institute of Cancer Research and Cancer Research UK Manchester Institute in accordance with National Home Office regulations under the Animals (Scientific Procedures) Act 1986 and according to the guidelines of the Committee of the National Cancer Research Institute Tumour size was determined by caliper measurements of tumour length, width and depth and volume was calculated as volume=0.5236×length×width×depth (mm).
SW620 xenografts: NCr mice were inoculated subcutaneously in the right flank with 5×10^6 SW620 cells at 100 ul suspension per animal. Groups of 7-8 mice were assigned to treatment following stratified allocation of tumour volumes with a median size of circa 100 mm^3. […] Tumours and weights are measured twice weekly using calipers. […] Frozen samples are kept at −80 degree centigrade until being analysed and the fixed samples stained according to the desired marker.
For therapeutic efficacy assessment, the ratio of average tumour volume between compound treated and vehicle control treated (T/C) is calculated. […] The efficacy of LOX inhibitors described in this invention, as measured by T/C in a pancreatic cancer model, a colorectal cancer model and a breast cancer model is shown in Table 2 and is significant (p<0.05) for all the data presented.

[2] = tested on: MMTV-PyMT breast transgenic model primary tumour; assay: MMTV-PyMT transgenic mouse breast cancer model, primary tumour T/C; format: in vivo; settings: 200 mg/kg po qd; ratio of average tumour volume treated/vehicle control; p<0.05
Method: as §1
(§2) MMTV-PyMT (Guy et al, 1992) (FVB) female mice were randomized by non-statistical methods to LOX inhibitor treatment groups from day 70 post-birth, when animals had no detectable tumour. Mice were treated daily by oral gavage with LOX inhibitor in vehicle, or daily vehicle (5% DMSO/2.5% Tween20 in water) by oral gavage. Tumour size was determined unblinded by caliper measurements of tumour length, width and depth and volume was calculated as 0.5236×length×width×depth (mm). In all experiments, mice were humanely killed and mammary tumours and lungs were collected when the primary tumours reached ethical limits or signs of ill health.
(§3) For therapeutic efficacy assessment, the ratio of average tumour volume between compound treated and vehicle control treated (T/C) is calculated. Reduction in tumour volume in the compound treated group compared to vehicle-treated control group results in T/C<1. The efficacy of LOX inhibitors described in this invention, as measured by T/C in a pancreatic cancer model, a colorectal cancer model and a breast cancer model is shown in Table 2 and is significant (p<0.05) for all the data presented.

[3] = tested on: MDA-MB-231 human breast adenocarcinoma; assay: MDA-MB-231 xenografts, primary tumour volume T/C; format: in vivo; settings: 200 mg/kg po qd, ratio of average tumour volume treated/vehicle control, p<0.05
Method: as §1
MDA-MB-231 xenografts. Ncr nude female mice at 6 weeks old from Charles River were injected into the third upper nipple mammary fat pad with MDA-MB-231 Luc 4×10^6 in 100 ul PB (50:50 Matrigel). When tumours reach a mean of 80 mm^3 around 10 days post cell inoculation the animals are allocated in 4 groups of 8. LOX inhibitor treatment is then administrated by oral gavage dosing, at 0.2 ml/20 g bodyweight once daily for up to 28 consecutive days. Tumours and weights are measured twice weekly using calipers and the animals can be imaged using non invasive method by bioluminescence using IVIS 200 imaging machine, weekly using 150 mg/kg luciferin administrate intraperitoneal or subcutaneous. At the end of the study the animals are culled, and samples taken, fixed or snap frozen in liquid nitrogen. Frozen samples kept at −80 degree centigrade until being analyzed and the fixed samples stained according to desired marker.
as §3

[4] = tested on: MMTV-PyMT breast transgenic model lung metastases; assay: MMTV-PyMT transgenic mouse breast cancer model, lung metastases quantification T/C; format: in vivo; settings: 200 mg/kg po qd, treated/vehicle control, p<0.05
Method: as §2
For lung metastases quantification, all mouse tissue samples were fixed in 10% formalin (Sigma) and embedded in paraffin. Samples were sectioned and hematoxylin and eosin (H&E) stained. Samples were imaged with a Leica CN400 slide scanner. Lung metastases were manually selected using Pen tool in ImageScope. Lung metastases number was counted and area was measured using ImageScope. The investigator was blinded to the experimental groups. The ratio of average metastases surface between compound treated and vehicle control treated (TIC) is calculated. The ratio of average metastases numbers between compound treated and vehicle control treated (T/C) is also calculated. Reduction in metastases area and/or in metastatses number in the compound treated group compared to vehicle-treated control group results in T/C<1. The antimetastatic efficacy of LOX inhibitors described in this invention, as measured by T/C in a model of breast cancer metastasising to lungs is shown in Table 2 and is significant (p<0.05) for all the data presented.

[5] = tested on: PDAC TRP53R172H (p53 mut) cells (mouse pancreatic carcinoma); assay: PDAC allografts, primary tumour volume T/C; format: in vivo; settings: ratio of average tumour volume treated/vehicle control, p<0.05
Method: as §1
PDAC allografts: CD1 nu/nu female mice at 6 weeks of age were inoculated subcutaneously in the right flank with 2×10^6 PDAC TRP53R172H (p53 mut) cells at 100 ul suspension per animal. In some examples, the oral dosing by metal gavage commences one day after cells inoculation, at 0.2 ml/20 g bodyweight per animal once daily for 2-4 weeks, with compound dissolved in 5.25% tween20/saline or 5% DMSO/water. In other examples, groups of 7-8 mice were assigned to treatment following stratified allocation of tumour volumes with a median size of circa 100 mm^3. […] Control animals received a similar dosage of vehicle (5.25% tween20/saline). Tumours and weights are measured twice weekly using calipers. At the end of the study the animals are culled, and samples taken, fixed or snap frozen in liquid nitrogen. Frozen samples kept at −80 degree centigrade until being analysed and the fixed samples stained according to the desired marker.
as §3

| Compound | inhibition at 2.5 µM (LOX; 2.5 uM (stated in cell), DMSO = 0%, BAPN 1 mM = 100% inhibition, read-out: LOX biosensor inhibition (cyst) @ 2.5 uM) [%] | pIC50 (LOX) | T/C SW620 human colorectal carcinoma cells (mutant RAS) - primary tumour [1] | T/C MMT-PyMT breast transgenic model - primary tumour [2] | response vs control in vivo at 200 mg/kg [3] [%] | T/C MMT-PyMT breast transgenic model - metastases b) Area ([4]; lung metastases area) | T/C MMT-PyMT breast transgenic model - metastases a) Count ([4]; lung metastases number) | T/C PDAC R172H (p53 mut) (mouse pancreatic carcinoma) - primary tumour ([5]; 200 mg/kg po qd) | T/C PDAC R172H (p53 mut) (mouse pancreatic carcinoma) - primary tumour ([5]; 100 mg/kg bid) |
| --- | --- | --- | --- | --- | --- | --- | --- | --- | --- |
| CC1(C)C[C@@H]2CN(C(=O)N3CCS(=O)(=O)CC3)C[C@H]1N(c1ccc(N3CCS(=O)(=O)CC3)cc1)C2 [Example 8, (1,1-dioxidothiomorpholino)((1S,5S)-6-(4-(1,1-dioxidothiomorpholino)phenyl)-9,9-dimethyl-3,6-diazabicyclo[3.2.2]nonan-3-yl)methanone] | 100 | 6.27 | 0.48 | 0.22 | 54 | b) 0.012 | a) 0.1 | – | – |
| CCOc1ccc(N2C[C@H]3CN(C(=O)NCCO)C[C@@H]2C(C)(C)C3)cc1 [Example 12, (1S,5S)-N-(2-hydroxyethyl)-6-(4-ethoxyphenyl)-9,9-dimethyl-3,6-diazabicyclo[3.2.2]nonane-3-carboxamide] | – | 6.05 | – | 0.26 | – | – | – | 0.47 | – |
| CCOc1ccc(N2C[C@H]3CN(C(=O)NCCS(C)(=O)=O)C[C@@H]2C(C)(C)C3)cc1 [Example 13, (1S,5S)-6-(4-ethoxyphenyl)-9,9-dimethyl-N-(2-(methylsulfonyl)ethyl)-3,6-diazabicyclo[3.2.2]nonane-3-carboxamide] | – | 5.99 | – | – | 63 | – | – | – | 0.56 |
| CCOc1ccc(N2C[C@H]3CN(C(=O)NCCc4c[nH]cn4)C[C@@H]2C(C)(C)C3)cc1 [Example 26, (1S,5S)-N-(2-(1H-imidazol-4-yl)ethyl)-6-(4-ethoxyphenyl)-9,9-dimethyl-3,6-diazabicyclo[3.2.2]nonane-3-carboxamide] | – | 6.47 | – | – | – | – | – | 0.46 | – |
